In patent publication US9828605B2, “Composition for enhancing radiation sensitivity comprising PI4K isozyme inhibitor” (Seoul National University R&DB Foundation, priority 2015, dated 2017):

Legend:
BT-474 cell line = experiment: colony formation assay after antiviral drug treatment and irradiation, BT-474; type: cell-based, human; conditions: drug concentrations determined as 100 nM, 200 nM and 30 μM, FIGS. 5 and 6
Experimental: (§1) First, after 48 hours of siRNA transduction of Example 2, the cells were collected and 500 with 0 Gy, 1,000 with 2 Gy, 2,000 with 4 Gy, and 4,000 with 6 Gy cells were cultured on a plate according to a radiation dose. After it was checked that the cells were stably attached to a culture dish, radiation was treated with a radiation dose rate of 2.46 Gy per minute by 4 MV X-ray by using a linear accelerator, and the cells were cultured for about 14 days to 23 days until cell colonies were checked with the naked eye. The formed colonies were fixed with 100% methanol and then dyed with 0.5% crystal violet, and surviving fraction was calculated by counting the number of colonies including at least 50 cells. In the surviving fraction, an average of the number of cell colonies in three wells for each radiation dose was shown according to a linear-quadratic model using Kaleidagraph version 3.51 (Synergy Software, Reading, Pa.), and the result was illustrated in FIG. 2.
(§2) As the hepatitis anti-C virus drug, simeprevir (Olysio) (Janssen Pharmaceutica), sofosbuvir (sovaldi) (Gilead), and daclatasvir (Daklinza) (Bristol-Myers Squibb) were used. […]
(§3) After the determined amount of drug was treated in the brain tumor and breast cancer cell lines, the colony formation assay was performed by the same method as Experimental Example 1, and the result was illustrated in FIGS. 5 to 7.

U251 cell line = experiment: colony formation assay after antiviral drug treatment and irradiation, U251; type: cell-based; conditions: drug concentrations determined as 100 nM, 200 nM and 30 μM, FIGS. 5 to 7
Experimental: as §1, §2, §3

[1] = tested on: phosphorylation of PKC and AKT; experiment: immune blotting of phosphorylation after simeprevir treatment, U251; type: cell-based; conditions: 24-72 hours of drug treatment, FIG. 5 right panel
Experimental: Simeprevir used as a hepatitis anti-C virus drug was treated and phosphorylation was verified through immune blotting after 24-72 hours of drug treatment. The result was illustrated in FIG. 5 (right panel).

[2] = tested on: human breast cancer cell lines BT-474; experiment: tumor xenograft model in vivo with radiation irradiation; set-up: species or system BALB/c athymic nude mouse; conditions: simeprevir 10 mg/Kg to peritoneal cavity three times a week for two weeks + radiation 9 Gy (3 Gy three times a week); compared with other groups; FIG. 9
Experimental: In order to form a tumor xenograft model in vivo, 5×10^6 human breast cancer cell lines BT-474 were injected to a hind leg of a BALB/c athymic nude mouse. After 3 weeks, it was verified that the tumor was uniformly grown, and the mouse was randomly assigned to four groups of a control group, a simeprevir group, a radiation irradiation group, and a simeprevir+radiation irradiation group. The simeprevir was administrated to peritoneal cavity with a concentration of 10 mg/Kg three times a week for two weeks, and the radiation was irradiated with 9 Gy three times a week by 3 Gy by electron beam of 6 MeV while covering 1 cm bolus. After the entire treatment was finished, the size of the tumor was measured at an interval of about 1 week, and the result was illustrated in FIG. 9.

SMILES | sensitivity to radiation (colony formation assay) (BT-474 cell line) | sensitivity to radiation (colony formation assay) (U251 cell line) | phosphorylation of AKT [1] | phosphorylation of PKC [1] | growth of the tumor [2]
COc1ccc2c(O[C@@H]3C[C@H]4C(=O)N[C@]5(C(=O)NS(=O)(=O)C6CC6)C[C@H]5/C=C\CCCCN(C)C(=O)[C@@H]4C3)cc(-c3nc(C(C)C)cs3)nc2c1C [simeprevir] | enhanced | enhanced | reduction | reduction | significantly inhibited
CC(C)OC(=O)[C@H](C)N[P@](=O)(OC[C@H]1O[C@@H](n2ccc(=O)[nH]c2=O)[C@](C)(F)[C@@H]1O)Oc1ccccc1 [sofosbuvir] | enhanced | enhanced | – | – | –
